From US5316771A, “Method of amphiphatic drug loading in liposomes by ammonium ion gradient” (priority 1992, dated 1994)
Where two headings read alike, the source gives them in different places.

How the values were obtained:
[1] = Text: For this, ammonium carbonate (0.12M) was placed in a beaker. The ultrasound probe was attached to the beaker.
[2] = Quenching of acridine orange fluorescence on incorporation into liposomes; format: physicochemical; conditions: liposomes with external ammonium sulfate removed
Procedure: In order to further substantiate the existence of the ammonium gradient, the same experiment as described above was repeated with the other compounds such as acridine orange, a cytotoxic drug acridine orange is an amphiphatic weak base (pK=9.25), which has the advantage of being fluorescent. Instead of trapping pyranine inside the ammonium sulfate liposomes, liposomes were added to a solution containing acridine orange. The quenching of the resulting solution was monitored following partitioning into the aqueous phase of the liposome, using the experimental designs described in Example 5 and illustrated in FIG. 2.
Inset graph is an example of one of the experiments. Percentage of fluorescence intensity (F.I.) of acridine orange was monitored continuously and is shown here as (a). At the specified time (b) liposomes were added and the quenching was followed. At steady state, 5 um of nigericin was added, shown here as (c) and the extent of the release of quenching was used to calculate the ammonium sulfate gradient dependent fluorescence intensity. The details of the experiment are described in Example 5.
1 umol of acridine orange was added to a solution containing different proportions of potassium chloride and ammonium sulfate. The solution was designed to get different outside-inside gradients of ammonium sulfate when the liposomes are added. […] The recovery of fluorescence was monitored. […]

[3] = cited from earlier work
[4] = Loading of daunorubicin into ammonium sulfate liposomes
[5] = Loading of doxorubicin into ammonium sulfate liposomes (NH4+ gradient), Dowex removal of free drug; format: physicochemical; conditions: biphasic, FIG. 3
[6] = Self-quenching of doxorubicin fluorescence; format: physicochemical
Procedure: The measurements were carried on a Perkin-Elmer MPF-44 spectrofluorometer, using excitation/emission wavelengths of 470 nm and 590 nm respectively. […] This was calculated from the difference between the fluorescence of the liposomes prepared according to Examples 1-4, and the fluorescence of the same mixture after diluting it 10 times with isopropanol containing 10% of 0.75% HCI. […] A correction for the difference in fluorescence of doxorubicin in water and the acidified isopropanol solution, deduced from measurements of the fluorescence of "free" drug in the two solutions, was introduced. The small amount of unquenched doxorubicin is probably due to some free-drug that leaked out of the vesicles.

[7] = Biochemistry, 21:3927-3932; cited from earlier work
[8] = around 24 hours; cited from earlier work
[9] = sodium/potassium gradient with valinomycin; cited from earlier work

With `N.N.O=C(O)O` [ammonium carbonate] the Ultrasound signal ([1]; HCl added to pH 4.0) was “large signal” and the Ultrasound signal ([1]; before acidification, 0.12M) was “No signal was observed”.
In the case of `CN(C)c1ccc2cc3ccc(N(C)C)cc3nc2c1` [Acridine orange], the “Quenching of acridine orange fluorescence” value [2] is listed as 96.5% and the pK [3] is listed as 9.25.
In the case of `COc1cccc2c1C(=O)c1c(O)c3c(c(O)c1C2=O)C[C@@](O)(C(C)=O)C[C@@H]3O[C@H]1C[C@H](N)[C@H](O)[C@H](C)O1` [Daunorubicin], the “Rate of incorporation compared with doxorubicin” value [4] is reported as “higher than that of doxorubicin” and the “Time to completion of incorporation” value [4] is reported as “less than one hour”.
In the case of `COc1cccc2c1C(=O)c1c(O)c3c(c(O)c1C2=O)C[C@@](O)(C(=O)CO)C[C@@H]3O[C@H]1C[C@H](N)[C@H](O)[C@H](C)O1` [Doxorubicin], the “Duration of slower phase of loading” value [5] is reported as “about 24 hours”, the “Concentration above which fluorescence is quenched” value ([6]; in saline) is reported as “higher than 10^-6 M” and the Quenching ([6]; in solution, concentration 1.7.10^-4, corrected for inner filter effect) is reported as 33%. The Quenching ([6]; in solution, concentration 3.4.10^-5, corrected for inner filter effect) was 16%, the Quenching ([6]; in solution, concentration 6.9.10^-5, corrected for inner filter effect) was 25% and the Quenching ([6]; inside the liposomes) was about 100%. For the same compound, the “Concentration above which dimers and aggregates form” value [7] was “higher than 1 um” and the Leakage from liposomes [8] was “substantial leakage”.
In the case of `CCCCOc1cc(C(=O)NCCN(CC)CC)c2ccccc2n1` [Dibucaine], the Loading [9] is listed as “up to 52%”.
